Source: paper PMC4166935, “Toward Biophysical Probes for the 5-HT3 Receptor: Structure−Activity Relationship Study of Granisetron Derivatives” (Journal of Medicinal Chemistry, 2010)
Where two headings read alike, the source gives them in different places.

Experiments:
human 5-HT3A receptor = biological target: T1, human 5-HT3A receptor (Homo sapiens, UniProt P46098); experiment: [3H]granisetron competition binding, HEK293 cell membranes stably expressing h5-HT3AR
T1 construct: expressed in transfected cells; cell membranes
T1 sequence (P46098 24-478): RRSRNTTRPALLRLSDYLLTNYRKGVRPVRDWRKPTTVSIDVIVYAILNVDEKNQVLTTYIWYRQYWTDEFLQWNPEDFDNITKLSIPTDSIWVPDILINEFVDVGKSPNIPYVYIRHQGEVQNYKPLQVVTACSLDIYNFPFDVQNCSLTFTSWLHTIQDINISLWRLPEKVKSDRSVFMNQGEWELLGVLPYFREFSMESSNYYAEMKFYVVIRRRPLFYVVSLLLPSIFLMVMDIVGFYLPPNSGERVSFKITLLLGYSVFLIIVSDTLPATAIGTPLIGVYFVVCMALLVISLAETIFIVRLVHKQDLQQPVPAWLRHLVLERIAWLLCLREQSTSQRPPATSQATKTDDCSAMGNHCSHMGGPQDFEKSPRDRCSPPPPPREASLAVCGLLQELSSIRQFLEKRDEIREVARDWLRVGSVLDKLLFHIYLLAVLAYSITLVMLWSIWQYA
Description: Materials and cell culture maintenance
All cell culture reagents were obtained from Gibco BRL (Paisley, UK), except foetal calf serum which was from Labtech International (Ringmer, UK). [3H]granisetron (63.5 Ci/mmol) was from PerkinElmer (Boston, Massachusetts, USA).
Human embryonic kidney (HEK)-293 cells were maintained on 90 mm tissue culture plates at 37°C and 7% CO2 in a humidified atmosphere. Cells were cultured in DMEM:F12 (Dulbecco’s modified Eagle medium/nutrient mix F12 (1:1)) with GlutaMAX™ I containing 10% foetal calf serum and passaged when 90% confluent.
Receptor expression and radioligand binding
HEK-293 cells stably expressing the human 5-HT3A subunit (accession number: P46098) were scraped into 1 mL of ice-cold HEPES buffer (10 mM, pH 7.4) and frozen at –20°C.
After thawing, they were spun at 13,000 rpm for 1 min, resuspended and 50 μg of cell […]
Competition binding (12 points) was performed on at least three separate plates of cells.
Nonspecific binding was determined using 10 μM quipazine or other competitive antagonist.
Reactions were incubated for at least 1 h at 4°C and terminated by vacuum filtration, using a Brandel cell harvester, onto GF/B filters presoaked in 0.3% polyethyleneimine. Radioactivity was determined by scintillation counting using a Beckman LS6000SC (Fullerton, CA, USA).
Competition binding data were analyzed by iterative curve fitting (GraphPad Prism v3.02, GraphPad Software, San Diego, CA, USA), according to the equation: […]
where [L] is the concentration of ligand present, BL is the binding in the presence of ligand […]
the concentration of L which gives a binding equal to (Bmax + Bmin)/2, and nH is the Hill coefficient. Ki values were calculated from IC50 values using the Cheng–Prusoff equation: […]
where Ki is the equilibrium dissociation constant for binding of the unlabelled antagonist, [L] is the concentration of radioligand and Kd is the equilibrium dissociation constant of the radioligand. Values are presented as mean ± SEM.

5-HT3 receptor = system: 5-HT3 receptor; parameters: method as in earlier work; settings: cited from earlier work
h5-HT3AR in HEK293 cells = biological target: T2, h5-HT3AR in HEK293 cells (Homo sapiens, UniProt P46098); experiment: Confocal labeling of HEK293 cells stably transfected with h5-HT3AR with fluorescent probe 16; assay type: cell-based; settings: 10 μM quipazine with 10 nM 16 for 10 min
T2 sequence (P46098 24-478): T1 sequence (P46098 24-478)
Description: To confirm the validity of this hypothesis, we attached a BODIPY FL fluorophore at this position (Scheme 3) to create fluorescent analogue 16 (BFL-GR). […] Similar images have previously been obtained using fluorescein, rhodamine 6G, and cyanine Cy5 dyes attached via a linker at a similar position of ondansetron, another high-affinity 5-HT3AR antagonist.[30]
Figure 3 Labeling of HEK293 cells stably transfected with h5-HT3AR with 16. Cells were incubated in 10 nM 16 for 10 min with (B) or without (A) 10 μM quipazine, washed, mounted, and then observed in a confocal microscope.[31] […] Unlabeled areas are nuclei. […] Scale bar represents 20 μm.

[1] = Ki (nM) mean ± SEM, competition with 1 nM [3H]granisetron, HEK293 cell membranes stably expressing h5-HT3AR
[2] = competition with 1 nM [3H]granisetron, HEK293 cell membranes stably expressing h5-HT3AR, read-out: Ki (nM) mean ± SEM

`COc1cccc2c1c(C(=O)NC1CC3CCCC(C1)N3C)nn2C` (stereo not drawn) [2b] showed a Ki (human 5-HT3A receptor) of 26.3 ± 7.4 nM.

Molecule `CN1C2CCCC1CC(NC(=O)c1nn(C)c3cccc(OCc4ccccc4)c13)C2` (stereo not drawn) [2c] has a Ki (human 5-HT3A receptor; [1]) of 375 ± 61 nM.

`CN1C2CCCC1CC(NC(=O)c1nn(C)c3ccc(OCc4ccccc4)cc13)C2` (stereo not drawn) [3c] showed a Ki (human 5-HT3A receptor; [2]) of 3030 ± 956 nM.

Work on `CN1C2CCCC1CC(NC(=O)c1nn(C)c3cc(OCc4ccccc4)ccc13)C2` (stereo not drawn) [4c] yielded a Ki (human 5-HT3A receptor; [2]) of 749 ± 183 nM.

For `CN1C2CCCC1CC(NC(=O)c1nn(C)c3c(O)cccc13)C2` (stereo not drawn) [5a], the “potency compared to granisetron” value (5-HT3 receptor) is listed as “as potent as granisetron”.

In the case of `COc1cccc2c(C(=O)NC3CC4CCCC(C3)N4C)nn(C)c12` (stereo not drawn) [5b], the Ki (human 5-HT3A receptor) is reported as 71.1 ± 8 nM.

With `CN1C2CCCC1CC(NC(=O)c1nn(C)c3c(OCc4ccccc4)cccc13)C2` (stereo not drawn) [5c] the Ki (human 5-HT3A receptor; [1]) was 0.23 ± 0.03 nM and the “affinity for 5-HT3AR compared to 1” value (human 5-HT3A receptor; comparison with granisetron (1)) was “equal or exceed the affinity measured for 1”.

In the case of `c1ccc2nc(N3CCNCC3)ccc2c1` [Quipazine, quipazine], the “displacement of 16 from its binding sites” value (h5-HT3AR in HEK293 cells) is reported as “has displaced 16 from its binding sites”.
